Experiments:
Assay type in all cases: in vivo
[1] = tested on: pigweed (Amaranthus retroflexus); assay: Test A greenhouse herbicide test, pre- and postemergence
Source text: (§1) Seeds of plant species selected from barnyardgrass (Echinochloa crus-galli), kochia (Kochia scoparia), ragweed (common ragweed, Ambrosia elatior), ryegrass, Italian (Italian ryegrass, Lolium multiflorum), crabgrass, large (large crabgrass, Digitaria sanguinalis), foxtail, giant (giant foxtail, Setaria faberii), momingglory (Ipomoea spp.), pigweed (Amaranthus retroflexus), velvetleaf (Abutilon theophrasti), wheat (Triticum aestivum), and corn (Zea mays) were planted into a blend of loam soil and sand and treated preemergence with a directed soil spray using test chemicals formulated in a non-phytotoxic solvent mixture which included a surfactant.
(§2) At the same time, plants selected from these crop and weed species and also blackgrass (Alopecurus myosuroides), and galium (catchweed bedstraw, Galium aparine) were planted in pots containing the same blend of loam soil and sand and treated with postemergence applications of test chemicals formulated in the same manner. Plants ranged in height from 2 to 10 cm and were in the one- to two-leaf stage for the postemergence treatment. Treated plants and untreated controls were maintained in a greenhouse for approximately 10 d, after which time all treated plants were compared to untreated controls and visually evaluated for injury. Plant response ratings, summarized in Table A, are based on a 0 to 100 scale where 0 is no effect and 100 is complete control. A dash (-) response means no test result.

[2] = tested on: ryegrass, Italian (Italian ryegrass, Lolium multiflorum); assay: as above
Source text: as §1, §2

[3] = tested on: kochia (Kochia scoparia); assay: as above
Source text: as §1, §2

[4] = tested on: barnyardgrass (Echinochloa crus-galli); assay: as above
Source text: as §1, §2

[5] = tested on: ragweed (common ragweed, Ambrosia elatior); assay: as above
Source text: as §1, §2

[6] = tested on: corn (Zea mays); assay: as above; conditions: Postemergence; for Plant response rating, Corn: 125 g ai/ha, 0 to 100 scale where 0 is no effect and 100 is complete control; for Corn plant response rating: 500 g ai/ha, 0 to 100 scale, 0 is no effect, 100 is complete control
Source text: as §1, §2

[7] = tested on: foxtail, giant (giant foxtail, Setaria faberii); assay: as above
Source text: as §1, §2

[8] = tested on: wheat (Triticum aestivum); assay: as above; conditions: Postemergence; for Plant response rating, Wheat: 125 g ai/ha, 0 to 100 scale where 0 is no effect and 100 is complete control; for Wheat plant response rating: 500 g ai/ha, 0 to 100 scale, 0 is no effect, 100 is complete control
Source text: as §1, §2

[9] = tested on: blackgrass (Alopecurus myosuroides); assay: Test A greenhouse herbicide test, postemergence; conditions: for Plant response rating, Blackgrass: 125 g ai/ha, 0 to 100 scale where 0 is no effect and 100 is complete control; for Blackgrass plant response rating: 500 g ai/ha, 0 to 100 scale, 0 is no effect, 100 is complete control
How it was run: (§3)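 Pot-grown plants (loam soil/sand blend), 2–10 cm tall at the one- to two-leaf stage, received postemergence sprays of formulated test chemical. After about 10 d in the greenhouse, injury was rated visually against untreated controls on a 0 (no effect) to 100 (complete control) scale.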

[10] = tested on: galium (catchweed bedstraw, Galium aparine); assay: Test A greenhouse herbicide test, postemergence; conditions: for Plant response rating, Galium: 125 g ai/ha, 0 to 100 scale where 0 is no effect and 100 is complete control; for Galium plant response rating: 500 g ai/ha, 0 to 100 scale, 0 is no effect, 100 is complete control
How it was run: as §3

[11] = tested on: sedge, umbrella (small-flower umbrella sedge, Cyperus difformis); assay: Test B flooded paddy test; conditions: 250 g ai/ha, Flood; visual rating on scale of 0 to 100 where 0 is no effect and 100 is complete control; 13 to 15 d after treatment
Method: (§4) Plant species in the flooded paddy test selected from rice (Oryza sativa), sedge, umbrella (small-flower umbrella sedge, Cyperus difformis), ducksalad (Heteranthera limosa), and barnyardgrass (Echinochloa crus-galli) were grown to the 2-leaf stage for testing. At time of treatment, test pots were flooded to 3 cm above the soil surface, treated by application of test compounds directly to the paddy water, and then maintained at that water depth for the duration of the test. Treated plants and controls were maintained in a greenhouse for 13 to 15 d, after which time all species were compared to controls and visually evaluated. Plant response ratings, summarized in Table B, are based on a scale of 0 to 100 where 0 is no effect and 100 is complete control. A dash (-) response means no test result.

[12] = tested on: ducksalad (Heteranthera limosa); assay: Test B flooded paddy test; conditions: 250 g ai/ha, Flood; visual rating on scale of 0 to 100 where 0 is no effect and 100 is complete control; 13 to 15 d after treatment
Method: as §4

[13] = tested on: barnyardgrass (Echinochloa crus-galli); assay: Test B flooded paddy test; conditions: 250 g ai/ha, Flood; visual rating on scale of 0 to 100 where 0 is no effect and 100 is complete control; 13 to 15 d after treatment
Method: as §4

[14] = tested on: rice (Oryza sativa); assay: Test B flooded paddy test; conditions: 250 g ai/ha, Flood; visual rating on scale of 0 to 100 where 0 is no effect and 100 is complete control; 13 to 15 d after treatment
Method: as §4

[15] = Postemergence, 125 g ai/ha, 0 to 100 scale where 0 is no effect and 100 is complete control
[16] = Postemergence, 500 g ai/ha, 0 to 100 scale, 0 is no effect, 100 is complete control
[17] = Preemergence, 125 g ai/ha, 0 to 100 scale where 0 is no effect and 100 is complete control
[18] = Preemergence, 500 g ai/ha, 0 to 100 scale, 0 no effect, 100 complete control
[19] = Preemergence, 500 g ai/ha, 0 to 100 scale where 0 is no effect and 100 is complete control

| Compound | Plant response rating, Pigweed [1, 15] | Pigweed plant response rating [1, 16] | Pigweed plant response rating [1, 17] | Plant response rating, Ryegrass, Italian [2, 15] | Ryegrass, Italian plant response rating [2, 16] | Ryegrass, Italian plant response rating [2, 17] | Plant response rating, Kochia [3, 15] | Kochia plant response rating [3, 16] | Kochia plant response rating [3, 17] | Plant response rating, Barnyardgrass [4, 15] | Barnyardgrass plant response rating [4, 16] | Barnyardgrass plant response rating [4, 17] | Plant response rating, Ragweed [5, 15] | Ragweed plant response rating [5, 16] | Ragweed plant response rating [5, 17] | Plant response rating, Corn [6] | Corn plant response rating [6] | Plant response rating, Foxtail, Giant [7, 15] | Foxtail, Giant plant response rating [7, 16] | Foxtail, Giant plant response rating [7, 17] | also measured |
| --- | --- | --- | --- | --- | --- | --- | --- | --- | --- | --- | --- | --- | --- | --- | --- | --- | --- | --- | --- | --- | --- |
| CC(=O)Oc1c(C)nn(C)c(=O)c1-c1c(C)sc2cc(C)cc(C)c12 [Compound 44] | 0 | 0 | 0 | 0 | 0 | 0 | 0 | 0 | 0 | 0 | 0 | 0 | 0 | 0 | 0 | 0 | 0 | 0 | 0 | 0 | Plant response rating, Pigweed [1, 18]: 0; Plant response rating, Ryegrass, Italian [2, 18]: 0; Plant response rating, Kochia [3, 18]: 0; Plant response rating, Barnyardgrass [4, 18]: 0; Plant response rating, Ragweed [5, 18]: 10; Plant response rating, Foxtail, Giant [7, 18]: 0; Plant response rating, Wheat [8]: 0; Wheat plant response rating [8]: 0; Plant response rating, Blackgrass [9]: 0; Blackgrass plant response rating [9]: 0; Plant response rating, Galium [10]: 30; Galium plant response rating [10]: 70; Plant response rating, Sedge, Umbrella [11]: 0; Plant response rating, Ducksalad [12]: 0; Plant response rating, Barnyardgrass [13]: 0; Plant response rating, Rice [14]: 0 |
| Cc1cc(C)c2c(-c3c(OC(=O)C(C)(C)C)c(C)nn(C)c3=O)c(C)sc2c1 [Compound 45] | 0 | 0 | 0 | 0 | 0 | 0 | 0 | 0 | 0 | 0 | 0 | 0 | 0 | 0 | 0 | 0 | 0 | 0 | 0 | 0 | Plant response rating, Pigweed [1, 18]: 0; Plant response rating, Ryegrass, Italian [2, 18]: 0; Plant response rating, Kochia [3, 18]: 0; Plant response rating, Barnyardgrass [4, 18]: 0; Plant response rating, Ragweed [5, 18]: 0; Plant response rating, Foxtail, Giant [7, 18]: 0; Plant response rating, Wheat [8]: 0; Wheat plant response rating [8]: 0; Plant response rating, Blackgrass [9]: 0; Blackgrass plant response rating [9]: 0; Plant response rating, Galium [10]: 0; Galium plant response rating [10]: 0; Plant response rating, Sedge, Umbrella [11]: 0; Plant response rating, Ducksalad [12]: 0; Plant response rating, Barnyardgrass [13]: 0; Plant response rating, Rice [14]: 0 |
| Cc1ccc(-c2c(O)cnn(C)c2=O)c2ccccc12 [Compound 50] | 20 | 50 | 0 | 20 | 40 | 0 | 0 | 20 | 0 | 0 | 0 | 0 | 0 | 20 | 0 | 0 | 0 | 0 | 0 | 0 | Plant response rating, Pigweed [1, 18]: 0; Plant response rating, Ryegrass, Italian [2, 18]: 10; Plant response rating, Kochia [3, 18]: 0; Plant response rating, Barnyardgrass [4, 18]: 0; Plant response rating, Ragweed [5, 18]: 0; Plant response rating, Foxtail, Giant [7, 18]: 0; Plant response rating, Wheat [8]: 0; Wheat plant response rating [8]: 0; Plant response rating, Blackgrass [9]: 0; Blackgrass plant response rating [9]: 10; Plant response rating, Galium [10]: 60; Galium plant response rating [10]: 80; Plant response rating, Sedge, Umbrella [11]: 0; Plant response rating, Ducksalad [12]: 0; Plant response rating, Barnyardgrass [13]: 0; Plant response rating, Rice [14]: 0 |
| COc1nn(C)c(=O)c(-c2cccc3ccccc23)c1O [Compound 55] | 70 | 90 | 70 | 100 | 100 | 100 | 90 | 100 | 70 | 60 | 90 | 90 | 90 | 100 | 90 | 0 | 20 | 70 | 90 | 80 | Plant response rating, Pigweed [1, 18]: 100; Plant response rating, Ryegrass, Italian [2, 18]: 100; Plant response rating, Kochia [3, 18]: 100; Plant response rating, Barnyardgrass [4, 18]: 90; Plant response rating, Ragweed [5, 18]: 100; Plant response rating, Foxtail, Giant [7, 18]: 100; Plant response rating, Wheat [8]: 0; Wheat plant response rating [8]: 0; Plant response rating, Blackgrass [9]: 70; Blackgrass plant response rating [9]: 80; Plant response rating, Galium [10]: 100; Galium plant response rating [10]: 100; Plant response rating, Sedge, Umbrella [11]: 0; Plant response rating, Ducksalad [12]: 0; Plant response rating, Barnyardgrass [13]: 0; Plant response rating, Rice [14]: 0 |
| Cc1sc2ccccc2c1-c1c(OC(=O)OC(C)C)c(Cl)nn(C)c1=O [Compound 94] | 30 | 70 | 70 | 30 | 50 | 20 | 30 | 60 | 30 | 0 | 40 | 0 | 10 | 60 | 50 | 0 | 0 | 30 | 50 | 20 | Plant response rating, Pigweed [1, 19]: 90; Plant response rating, Ryegrass, Italian [2, 19]: 50; Plant response rating, Kochia [3, 19]: 70; Plant response rating, Barnyardgrass [4, 19]: 40; Plant response rating, Ragweed [5, 19]: 80; Plant response rating, Foxtail, Giant [7, 19]: 50; Plant response rating, Wheat [8]: 0; Wheat plant response rating [8]: 20; Plant response rating, Blackgrass [9]: 0; Blackgrass plant response rating [9]: 30; Plant response rating, Galium [10]: 80; Galium plant response rating [10]: 90; Plant response rating, Sedge, Umbrella [11]: 0; Plant response rating, Ducksalad [12]: 0; Plant response rating, Barnyardgrass [13]: 0; Plant response rating, Rice [14]: 0 |

From US10597388B2, “Pyridazinone herbicides” (FMC CORPORATION, priority 2014, dated 2020)
